From BindingDB's records for doi:10.1021/acs.jmedchem.1c00920 (Astrazeneca, 2021)
pIC50: −log10 of the molar value.

Target: Tyrosine-protein kinase Mer (Homo sapiens) (UniProt Q12866)
Test: Inhibition of FLAG-tagged MER (unknown origin) transfected in Cos-7cells assessed as phosphorylation level incubated for 1 hr by ELISA

Tyrosine-protein kinase Mer (Homo sapiens), sequence (Q12866 whole entry, looked up): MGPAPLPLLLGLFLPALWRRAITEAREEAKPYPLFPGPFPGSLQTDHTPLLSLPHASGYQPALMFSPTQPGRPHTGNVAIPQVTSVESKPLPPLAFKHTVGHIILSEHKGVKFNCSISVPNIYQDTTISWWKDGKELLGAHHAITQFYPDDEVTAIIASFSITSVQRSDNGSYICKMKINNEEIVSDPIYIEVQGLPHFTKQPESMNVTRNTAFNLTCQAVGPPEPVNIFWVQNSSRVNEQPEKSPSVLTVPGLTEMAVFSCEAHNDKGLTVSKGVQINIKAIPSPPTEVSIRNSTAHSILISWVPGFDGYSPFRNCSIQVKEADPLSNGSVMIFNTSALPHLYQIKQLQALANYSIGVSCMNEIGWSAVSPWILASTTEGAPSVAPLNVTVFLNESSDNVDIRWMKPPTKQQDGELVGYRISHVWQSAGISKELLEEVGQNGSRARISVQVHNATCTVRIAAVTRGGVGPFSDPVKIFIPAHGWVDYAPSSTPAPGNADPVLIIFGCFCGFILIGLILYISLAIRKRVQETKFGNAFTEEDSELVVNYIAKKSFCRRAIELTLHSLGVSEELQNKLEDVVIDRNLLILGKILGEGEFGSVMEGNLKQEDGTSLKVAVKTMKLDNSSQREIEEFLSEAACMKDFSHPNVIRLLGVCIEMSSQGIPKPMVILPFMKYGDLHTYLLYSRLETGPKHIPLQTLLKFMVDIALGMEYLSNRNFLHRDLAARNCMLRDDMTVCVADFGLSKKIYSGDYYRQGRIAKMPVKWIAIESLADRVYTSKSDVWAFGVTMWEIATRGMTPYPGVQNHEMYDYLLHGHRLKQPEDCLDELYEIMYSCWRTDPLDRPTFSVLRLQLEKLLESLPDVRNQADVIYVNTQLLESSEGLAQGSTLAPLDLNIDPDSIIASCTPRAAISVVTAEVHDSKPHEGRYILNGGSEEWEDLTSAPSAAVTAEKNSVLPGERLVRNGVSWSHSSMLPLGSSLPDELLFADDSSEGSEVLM

Compound	pIC50
Cc1nn(C)c(C)c1-c1ccc(-c2nnc(N(C)Cc3ccc4nccn4c3)o2)cc1	6.70
Cc1nn(C)c(C)c1-c1ccc(-c2nnc(N(C)Cc3ccc4nccn4c3)o2)c(F)c1	6.50
COc1cc(-c2c(C)nn(C)c2C)ccc1-c1nnc(N(C)Cc2ccc3nccn3c2)o1	6.30
Cc1cc(-c2c(C)nn(C)c2C)ccc1-c1nnc(N(C)Cc2ccc3nccn3c2)o1	7.49
Cc1cc(-c2c(C)nn(C)c2C)cnc1-c1nnc(N(C)Cc2ccc3nccn3c2)o1	6.10
Cc1nc(-c2c(C)nn(C)c2C)ccc1-c1nnc(N(C)Cc2ccc3nccn3c2)o1	5.80
Cc1cc(-c2c(C)n[nH]c2C)ccc1-c1nnc(N(C)Cc2ccc3nccn3c2)o1	5.60
Cc1cc(-c2cnn(C)c2C)ccc1-c1nnc(N(C)Cc2ccc3nccn3c2)o1	7.10
Cc1cc(-c2c(C#N)nn(C)c2C)ccc1-c1nnc(N(C)Cc2ccc3nccn3c2)o1	6.50
Cc1cc(-c2c(C)nc(C)n2C)ccc1-c1nnc(N(C)Cc2ccc3nccn3c2)o1	6.30
Cc1cc(-c2c(C)nn(C)c2C)ccc1-c1nnc(N(C)Cc2ccc3ncc(C(=O)N(C)C)n3c2)o1	7.49
Cc1cc(-c2c(C)nn(C)c2C)ccc1-c1nnc(N(C)Cc2ccc3ncc(-c4ccccc4)n3c2)o1	7.49
Cc1cc(-c2c(C)nn(C)c2C)ccc1-c1nnc(N(C)Cc2ccc3ncc(-c4cnn(C)c4)n3c2)o1	7.89
Cc1cc(-c2c(C)nn(C)c2C)ccc1-c1nnc(N(C)Cc2ccc3ncc(C4CCN(C)CC4)n3c2)o1	6.60
Cc1cc(-c2c(C)nn(C)c2C)ccc1-c1nnc(N(C)Cc2ccc3ncc(-c4cnn(CCN(C)C)c4)n3c2)o1	7.70
Cc1cc(-c2c(C)nn(C)c2C)cnc1-c1nnc(N(C)Cc2ccc3ncc(-c4cnn(CCN(C)C)c4)n3c2)o1	6.70
Cc1cc(-c2c(C)nn(C)c2C)cnc1-c1nnc(N(C)Cc2ccc3ncc(-c4ccc(CN(C)C)cc4)n3c2)o1	7.80
Cc1cc(-c2c(C)nn(C)c2C)cnc1-c1nnc(N(C)Cc2ccc3ncc(-c4cccc(CN(C)C)c4)n3c2)o1	7.49
Cc1cc(-c2c(C)nn(C)c2C)cnc1-c1nnc(N(C)Cc2ccc3ncc(-c4ccc(CN(C)C)nc4)n3c2)o1	7.00
Cc1cc(-c2c(C)nn(C)c2C)cnc1-c1nnc(N(C)Cc2ccc3ncc(-c4ccc(CN(C)C)cn4)n3c2)o1	7.89
CN1CCN(Cc2ccc(-c3ccc(CO[C@H]4CCC[C@@H]4NC(=O)c4cc(-c5cnn(C)c5)cnc4N)cc3)cc2)CC1 [US10125118, Example 172]	8.10
